Where a name gives a salt, the structure may show the parent alone.
Key:
KDR = biological target: T1, KDR (Homo sapiens, UniProt P35968); assay: KDR kinase HTRF assay; type: biochemical; conditions: recombinant EEE-tagged KDR, 0.3 mM ATP
T1 construct: EEE tag
Procedure: (§1) To determine inhibition of KDR and FGFR, kinase assays were conducted using an HTRF (Homogeneous Time Resolved Fluorescence) assay. This assay is described in A. J. Kolb et. al., Drug Discovery Today, 1998, 3(7), p 333.
Prior to kinase reaction, recombinant EEE-tagged KDR was activated in the presence of activation buffer (50 mM HEPES, pH 7.4, 1 mM DTT, 10% glycerol, 150 mM NaCl, 0.1 mM EDTA, 26 mM MgCl2, and 4 mM ATP). The enzyme was incubated at 4° C. for 1 hour.
Kinase activity assays were performed in 96-well polypropylene plates (Falcon) with a total volume of 90 μL in each well. Each well contained 1 μM KDR substrate (Biotin-EEEEYFELVAKKKK), 1 nM activated KDR, and a test compound with one of 8 assay concentrations ranging from 100 μM to […] (1:5 serial dilution). The kinase activity assay was done in the presence of 100 mM HEPES, pH 7.4, 1 mM DTT, 0.1 mM Na2VO4, 25 mM MgCl2, 50 mM NaCl (from KDR stock solution), 1% DMSO (from compound), 0.3 mM ATP (at Km concentration) and 0.02% BSA. The reaction was incubated at 37° C. for 30 minutes. To stop the KDR reaction, 72 μL of reaction mixture was transferred into a STOP plate containing 18 μL of revelation buffer (20 mM EDTA, 50 mM HEPES, pH 7.4, 0.02% BSA, 10 nM Eu-labelled anti-pY antibody (final conc. 2 nM), and 100 nM streptavidin (final conc. 20 nM)). After mixing, 35 μL of solution was transferred into duplicate wells of a 384-well black plate (Costar), and read at 615/665 nm on a Wallac Victor 5 reader.
(§2) Compound IC50 values were determined from duplicate sets of data, and calculated by using Excel and fitting data to equation Y=[(a−b)/{1+(X/c)^d]+b, where a and b are enzyme activity in the presence of no test inhibitor compound and an infinite amount of inhibitor test compound, respectively, c is the IC50 and d is the hill constant of the compound response. The IC50 value is the concentration of test compound that reduces by 50% the enzyme activity under the test conditions described.

FGF-stimulated HUVEC = FGF-stimulated HUVEC proliferation assay (BrdU); type: cell-based; conditions: Homo sapiens, FGF 5 ng per mL, BrdU ELISA, read-out: FGF-HUVEC (IC50, BrdU labeling)
Procedure: (§3) The antiproliferative activity of test compounds of this invention in cell-based assays was evaluated by BrdU assay using the BrdU kit (Roche Biochemicals 1-647-229). Human umbilical vein endothelial cells (HUVEC, Clonetics CC-2519) were cultured in EGM-2 (Clonetics CC-3162) medium and seeded at 10000 cells per well in a volume of 200 μL of EGM-2 (Clonetics CC-3162) media in a 96-well flat bottom plates (Costar 3595) overnight. After 24 hours of growth at 37° C. with 5% CO2, the incubation media was removed slowly by aspiration and the content of each well was washed with 300 μL pre-warmed EBM-2 (Clonetics CC-3156) containing 50 μg per mL of gentamycin and 50 ng per mL of amphotercin-B (Clonetics CC-4083). […]
(§4) After 24 hour exposure to the test compounds, the cells were labeled with BrdU (Roche Biochemicals 1-647-229), by adding 20 μL per well of BrdU labeling reagent that has been diluted (1:100) in serum starvation medium. […] The plates were read at 450 nm with reference wavelength of 650 nm. The percent inhibition for each test compound was calculated by subtracting the absorbency of the blank (no cells) wells from all wells, then subtracting the division of the average absorbency of each test duplicate by the average of the controls from 1. […] The IC50 is determined from the linear regression of a plot of the logarithm of the concentration versus percent inhibition.

FGFR = biological target: T2, FGFR; assay: FGFR kinase HTRF assay; type: biochemical; conditions: GST-tagged FGFR, 10 μM ATP
T2 construct: fused on or other part: GST tag
Procedure: as §1
FGFR activity assays were carried out as described above for the KDR activity assay with the following differences. GST-tagged FGFR enzyme was activated at room temperature for 1 hour in the following activation buffer: 100 mM HEPES, pH 7.4, 50 mM NaCl, 20 mM MgCl2, and 4 mM ATP. The kinase activity assay was performed with 1 μM substrate (Biotin-EEEEYFELV), 1.5 nM activated FGFR, and test compound in the presence of 100 mM HEPES, 1 mM DTT, 0.4 mM MgCl2, 0.4 mM MnCl2, 50 mM NaCl, 1% DMSO, 10 μM ATP (Km=8.5 μM for FGFR), 0.1 mM Na2VO4, and 0.02% BSA, in a total volume of 90 μL. The rest of the assay was performed in the same manner as KDR assay.
as §2

VEGF-stimulated HUVEC = VEGF-stimulated HUVEC proliferation assay (BrdU); type: cell-based; conditions: Homo sapiens, VEGF 20 ng per mL, BrdU ELISA, read-out: VEGF-HUVEC (IC50, BrdU labeling)
Procedure: as §3, §4

T1 sequence (P35968 20-1356): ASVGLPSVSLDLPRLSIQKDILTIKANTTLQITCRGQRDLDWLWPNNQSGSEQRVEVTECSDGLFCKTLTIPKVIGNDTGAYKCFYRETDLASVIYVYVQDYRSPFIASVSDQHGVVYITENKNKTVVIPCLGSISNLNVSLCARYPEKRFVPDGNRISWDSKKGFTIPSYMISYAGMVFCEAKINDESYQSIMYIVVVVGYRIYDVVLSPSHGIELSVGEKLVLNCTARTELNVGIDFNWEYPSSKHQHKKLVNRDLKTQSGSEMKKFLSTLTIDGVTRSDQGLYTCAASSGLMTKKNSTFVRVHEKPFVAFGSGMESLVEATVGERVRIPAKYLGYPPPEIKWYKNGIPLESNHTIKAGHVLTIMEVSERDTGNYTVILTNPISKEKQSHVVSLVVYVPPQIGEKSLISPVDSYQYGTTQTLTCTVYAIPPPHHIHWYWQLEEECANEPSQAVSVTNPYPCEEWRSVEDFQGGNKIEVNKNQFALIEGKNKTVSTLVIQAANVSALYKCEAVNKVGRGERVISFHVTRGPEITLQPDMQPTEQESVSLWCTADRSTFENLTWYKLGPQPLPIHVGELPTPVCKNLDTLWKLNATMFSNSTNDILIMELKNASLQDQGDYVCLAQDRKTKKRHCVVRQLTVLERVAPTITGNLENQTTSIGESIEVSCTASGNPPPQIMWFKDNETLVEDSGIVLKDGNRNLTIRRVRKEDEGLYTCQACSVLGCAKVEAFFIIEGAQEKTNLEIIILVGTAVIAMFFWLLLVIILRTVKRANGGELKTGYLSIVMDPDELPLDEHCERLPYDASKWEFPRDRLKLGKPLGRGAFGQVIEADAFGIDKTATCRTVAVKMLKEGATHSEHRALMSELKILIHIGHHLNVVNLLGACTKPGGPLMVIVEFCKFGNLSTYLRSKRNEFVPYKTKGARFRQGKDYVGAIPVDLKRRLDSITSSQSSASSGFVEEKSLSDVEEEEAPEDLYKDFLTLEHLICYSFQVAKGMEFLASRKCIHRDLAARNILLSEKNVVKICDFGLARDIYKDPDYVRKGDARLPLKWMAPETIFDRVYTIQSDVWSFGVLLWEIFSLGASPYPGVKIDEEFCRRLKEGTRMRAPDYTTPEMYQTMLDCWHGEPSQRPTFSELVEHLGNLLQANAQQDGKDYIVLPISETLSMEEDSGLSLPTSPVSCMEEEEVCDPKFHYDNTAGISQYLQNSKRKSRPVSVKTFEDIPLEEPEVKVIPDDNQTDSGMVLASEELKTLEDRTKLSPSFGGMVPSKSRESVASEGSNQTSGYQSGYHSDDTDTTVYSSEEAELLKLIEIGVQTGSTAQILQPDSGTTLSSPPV

| IC50 (KDR) | IC50 (FGFR) | SMILES | IC50 (FGF-stimulated HUVEC) | IC50 (VEGF-stimulated HUVEC) |
| --- | --- | --- | --- | --- |
| 509 nM |  | COc1ccc(OCc2csc3c(C(=O)NCCO)cnc(N)c23)c(Cl)c1 [Example 2, 4-Amino-3-(2-chloro-4-methoxy-phenoxymethyl)-thieno[3,2-c]pyridine-7-carboxylic acid (2-hydroxy-ethyl)-amide] |  |  |
| 20 nM | 72.4 nM | Nc1ncc(C(=O)NCCO)c2scc(COc3ccc(Br)cc3)c12 [Example 4a, 4-Amino-3-(4-bromo-phenoxymethyl)-thieno[3,2-c]pyridine-7-carboxylic acid (2-hydroxy-ethyl)-amide] | 2760 nM | 264 nM |
| 58.4 nM | 180 nM | Nc1ncc(C(=O)NCCN2CCOCC2)c2scc(COc3ccc(Br)cc3)c12 [Example 13b, 4-Amino-3-(4-bromo-phenoxymethyl)-thieno[3,2-c]pyridine-7-carboxylic acid (2-morpholin-4-yl-ethyl)-amide hydrochloride salt] | 627 nM | 204 nM |
